Assays:
α1a-AR = target: T1, α1a-AR (Homo sapiens, UniProt P35348); assay: α1-Adrenergic receptor radio-ligand (125I-HEAT) binding assay, α1a subtype; conditions: COS-7 cell membranes, 125I-HEAT
T1 construct: expressed in transfected cells; host or cells: COS-7
T1 sequence (P35348 1-466): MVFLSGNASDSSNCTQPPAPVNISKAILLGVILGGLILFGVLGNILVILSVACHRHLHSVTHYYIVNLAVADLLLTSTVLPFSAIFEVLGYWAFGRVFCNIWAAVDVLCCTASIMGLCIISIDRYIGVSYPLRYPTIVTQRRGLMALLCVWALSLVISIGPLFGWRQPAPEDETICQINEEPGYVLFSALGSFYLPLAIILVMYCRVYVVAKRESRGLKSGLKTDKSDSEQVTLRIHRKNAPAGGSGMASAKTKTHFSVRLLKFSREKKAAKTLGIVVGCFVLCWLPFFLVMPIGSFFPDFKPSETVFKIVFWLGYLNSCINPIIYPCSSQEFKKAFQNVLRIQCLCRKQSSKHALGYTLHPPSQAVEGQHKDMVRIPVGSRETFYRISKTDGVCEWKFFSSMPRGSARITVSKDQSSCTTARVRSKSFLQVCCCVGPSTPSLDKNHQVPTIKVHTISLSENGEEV
Procedure, shortened: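 Membranes from COS-7 cells transfected with the α1a-AR were incubated with 50 pM final ¹²⁵I-HEAT and test compound (1 pM–10 μM final, half-log steps) in Tris/EDTA/NaCl buffer pH 7.4 for 1 hr at rt. Bound radioactivity was counted after GF/C filtration, in triplicate.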

α1b-AR = target: T2, α1b-AR (Homo sapiens, UniProt P35368); assay: α1-Adrenergic receptor radio-ligand (125I-HEAT) binding assay, α1b subtype; conditions: Receptor Binding, Ki α1b-AR, COS-7 cell membranes, 125I-HEAT
T2 sequence (P35368 1-520): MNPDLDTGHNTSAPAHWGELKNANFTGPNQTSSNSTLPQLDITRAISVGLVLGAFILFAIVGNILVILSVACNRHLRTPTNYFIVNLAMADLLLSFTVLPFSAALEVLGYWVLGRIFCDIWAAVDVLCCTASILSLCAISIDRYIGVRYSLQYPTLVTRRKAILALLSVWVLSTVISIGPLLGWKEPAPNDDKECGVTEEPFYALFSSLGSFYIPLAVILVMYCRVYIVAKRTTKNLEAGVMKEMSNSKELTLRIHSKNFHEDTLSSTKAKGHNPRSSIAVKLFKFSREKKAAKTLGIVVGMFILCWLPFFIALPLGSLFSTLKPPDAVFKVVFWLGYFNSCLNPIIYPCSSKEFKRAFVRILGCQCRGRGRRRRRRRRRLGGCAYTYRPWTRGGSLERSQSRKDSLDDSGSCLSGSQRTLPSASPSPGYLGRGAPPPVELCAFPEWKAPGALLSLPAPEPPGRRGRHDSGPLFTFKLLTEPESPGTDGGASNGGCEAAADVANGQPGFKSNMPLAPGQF

Ki (α1a-AR): 1.2 nM
Ki (α1b-AR): 100 nM
Compound: COc1ccc(S(=O)(=O)N[C@H]2CC[C@@H](N3CCN(c4ccccc4OCC(F)(F)F)CC3)CC2)cc1OC [Cpd 69, 3,4-Dimethoxy-N-cis-(4-{4-[2-(2,2,2-trifluoro-ethoxy)-phenyl]-piperazin-1-yl}-cyclohexyl)-benzenesulfonamide]

From patent US20060173015A1, “Cyclohexyldiamines as selective alpha 1a/1d adrenoreceptor antagonists for the treatment of benign prostatic hypertrophy and lower urinary tract symptoms” (priority 2004, published 2006)
